Test results: paper PMC3441526, “KCN1, a Novel Synthetic Sulfonamide Anticancer Agent: In Vitro and In Vivo Anti-Pancreatic Cancer Activities and Preclinical Pharmacology” (PLoS ONE, 2012)
Like-named read-outs stand apart in the source and are kept apart here.

What was measured:
[1] = Pharmacokinetic study in mice; format: in vivo, CD-1 mice; conditions: for dose recovered as parental KCN1 from urine: first 24 hr
Method: Female CD-1 and nude mice were administered 35 mg/kg body weight of KCN1 as either a single intravenous injection via a tail vein or via an intraperitoneal injection. At selected time points after dosing, groups of three mice/time point were subjected to a retro-orbital bleed. The blood was collected into heparinized tubes, and plasma was separated by centrifugation. Tissues (brain, skeletal muscle, kidneys, liver, spleen, and heart) were collected by necropsy. Urine and feces were collected on ice for 24 h from mice housed in metabolic cages (n = 3/study). The collection containers and cages were washed twice with 0.9% saline solution, and each urine collection and each wash was analyzed separately, then values were added together for each mouse to determine the total KCN1 present in urine during the collection period. Pharmacokinetic values were derived using Phoenix WinNonlin Version 6.0 (Mountain View, CA).
An HPLC protocol was developed to detect KCN1 in different matrices (plasma, urine or tissue homogenates) using an Agilent 1120 instrument. KCN1 was separated on a Zorbax SB-C18 (5 µm, 150 × 4.6 mm) analytical column with a Zorbax Reliance Cartridge Guard Column (SB-C18), and the eluate was monitored by UV at 254 nm. The mobile phase was composed of “A” (methanol +0.1% Et3N)-“B” (ddH2O+0.1% Et3N) (80∶20, v/v). Prior to application, the mobile phase was filtered and degassed using a Millipore glass filter system with a nylon membrane (0.2 µm). The peaks for KCN1 were used to establish standard curves and for quantitative analysis of samples. Quantification of the compound was achieved by determination of the peak area at the retention time of approximately 4.4 minutes.
Plasma (100 µL) was mixed with 200 µL of methanol, vortexed, and centrifuged to remove precipitated proteins. The supernatant was evaporated to dryness under a stream of air. The residue was dissolved in 100 µL of the mobile phase, and 10 µL was injected onto the HPLC system for analysis. Weighed tissues were homogenized in two to five volumes of PBS (based on the weight of the tissue samples), and portions of the homogenates were processed in the same manner as the plasma samples.

[2] = Plasma stability determination; format: in vitro ADME, mouse
Method: The validated HPLC method was used to evaluate the stability of KCN1 in mouse plasma at 37°C, 4°C and −80°C. KCN1 was dissolved in methanol and diluted with plasma to achieve the two concentrations used in the study: 1 and 10 µM. At the designated time points, samples were removed and extracted using the aforementioned procedure. KCN1 concentrations were quantified and, to illustrate the in vitro stability of the compound, expressed as percentages of the initial concentration.

[3] = system: Mia Paca-2 xenograft tumors; assay: Subcutaneous xenograft tumor model; format: in vivo, nude mice (nu/nu); conditions: for decrease of tumor growth: 5 days/wk for 6 weeks
Method: (§1) The animal procedures were performed under approval by the Institutional Animal Use and Care Committee of Texas Tech University Health Sciences Center (IACUC # 10031, PHS Assurance # A 3056-01, USDA Registration # 74-R-0050, REF # 039436). Female athymic pathogen-free nude mice (nu/nu, 4–6 weeks) were purchased from Charles River Laboratories International Inc. (Wilmington, MA). To establish Panc-1 and Mia Paca-2 human pancreatic cancer xenograft tumors, cultured Panc-1 (5×10^6) and Mia Paca-2 (1×10^7) cells were harvested from monolayer cultures, washed twice with serum-free medium, re-suspended and injected subcutaneously (total volume 0.2 mL) into the left inguinal area of the mice. All animals were monitored for activity, physical condition, body weight, and tumor growth. Tumor size was determined every other day by caliper measurement of two perpendicular diameters of the implant. Tumor volume (in mm^3) was calculated by the formula, ½ (a × b ^2) where “a” is the long diameter and “b” is the short diameter, [47].
(§2) The animals bearing human cancer xenografts were randomly divided into various treatment groups and a control group (7–10 mice/group). The untreated control group received the vehicle only. For the Panc-1 and Mia Paca-2 xenograft models, KCN1 was dissolved in a 1∶1 solution of Cremophor EL (Sigma, St. Louis, MO): ethanol (200 Proof) by heating to 80–90°C in a water bath and vortexing, then diluted with an equal volume of phosphate-buffered saline, and was administered by intraperitoneal injection at doses of 30 and 60 mg/kg/d, 5d/wk for several weeks. Treatment was initiated once tumor volume reached ∼100 mm^3. The dosage regimen was decided based upon IC50 values obtained from in-vitro studies and adjustments for body surface and weight of the treated animal.

Panc-1 xenograft tumors = assay: Subcutaneous xenograft tumor model; format: in vivo, nude mice (nu/nu); conditions: for tumor growth inhibition: 5 days/week, Day 21
Method: as §1, §2

[4] = CD-1 mice, 35 mg/kg, either route

COc1ccc(S(=O)(=O)N(Cc2ccc3c(c2)C=CC(C)(C)O3)c2ccccc2)cc1OC [KCN1, 3,4-dimethoxy-N-[(2,2-dimethyl-2H-chromen-6-yl)methyl]-N-phenylbenzenesulfonamide]
dose recovered as parental KCN1 from urine ([1]; CD-1 mice, 35 mg/kg I.P.): less than 0.5% | dose recovered as parental KCN1 from urine ([1]; CD-1 mice, 35 mg/kg intravenously): less than 1% | detection in brain [1, 4]: could not be detected after 6 h | time detectable in heart, lungs, liver, spleen, kidneys and skeletal muscle [1, 4]: at least 24 h | time plasma concentration still detectable ([1]; CD-1 mice, I.P. 35 mg/kg): ≥ 24 h | time plasma concentration still detectable ([1]; CD-1 mice, I.V. 35 mg/kg): at least 6 h | Tmax ([1]; female, mouse, plasma, ip, CD-1 mice, I.P. 35 mg/kg, read-out: time of maximum plasma level (converted)): 30 min | concentration at 6 h ([1]; female, mouse, plasma, iv, CD-1 mice, I.V. 35 mg/kg, 6 h after dosing): < 300 ng/mL | concentration at 5 min ([1]; female, mouse, plasma, iv, CD-1 mice, bolus I.V. 35 mg/kg, 5 minutes): 9980 ng/mL | half-life ([1]; female, mouse, Brain, CD-1, IP 35 mg/kg): 188 min | Tmax ([1]; female, mouse, Brain, CD-1, IP 35 mg/kg, read-out: Tmax): 60 min | half-life ([1]; female, mouse, Brain, CD-1, IV 35 mg/kg): 31.8 min | Tmax ([1]; female, mouse, Brain, CD-1, IV 35 mg/kg, read-out: Tmax): 4.8 min | half-life ([1]; female, mouse, Heart, CD-1, IP 35 mg/kg): 131 min | Tmax ([1]; female, mouse, Heart, CD-1, IP 35 mg/kg, read-out: Tmax): 10.2 min | half-life ([1]; female, mouse, Heart, CD-1, IV 35 mg/kg): 1320 min | Tmax ([1]; female, mouse, Heart, CD-1, IV 35 mg/kg, read-out: Tmax): 4.8 min | half-life ([1]; female, mouse, Kidneys, CD-1, IP 35 mg/kg): 150 min | Tmax ([1]; female, mouse, Kidneys, CD-1, IP 35 mg/kg, read-out: Tmax): 4.8 min | half-life ([1]; female, mouse, Kidneys, CD-1, IV 35 mg/kg): 1130 min | Tmax ([1]; female, mouse, Kidneys, CD-1, IV 35 mg/kg, read-out: Tmax): 4.8 min | half-life ([1]; female, mouse, Liver, CD-1, IP 35 mg/kg): 210 min | Tmax ([1]; female, mouse, Liver, CD-1, IP 35 mg/kg, read-out: Tmax): 240 min | half-life ([1]; female, mouse, Liver, CD-1, IV 35 mg/kg): 69 min | Tmax ([1]; female, mouse, Liver, CD-1, IV 35 mg/kg, read-out: Tmax): 4.8 min | half-life ([1]; female, mouse, Lungs, CD-1, IP 35 mg/kg): 136 min | Tmax ([1]; female, mouse, Lungs, CD-1, IP 35 mg/kg, read-out: Tmax): 15 min | half-life ([1]; female, mouse, Lungs, CD-1, IV 35 mg/kg): 1400 min | Tmax ([1]; female, mouse, Lungs, CD-1, IV 35 mg/kg, read-out: Tmax): 120 min | half-life ([1]; female, mouse, Muscle, CD-1, IP 35 mg/kg): 112 min | Tmax ([1]; female, mouse, Muscle, CD-1, IP 35 mg/kg, read-out: Tmax): 10.2 min | half-life ([1]; female, mouse, Muscle, CD-1, IV 35 mg/kg): 91.2 min | Tmax ([1]; female, mouse, Muscle, CD-1, IV 35 mg/kg, read-out: Tmax): 4.8 min | half-life ([1]; female, mouse, Plasma, CD-1, IP 35 mg/kg): 441 min | half-life ([1]; female, mouse, Plasma, CD-1, IV 35 mg/kg): 9.6 min | half-life ([1]; female, mouse, Spleen, CD-1, IP 35 mg/kg): 141 min | Tmax ([1]; female, mouse, Spleen, CD-1, IP 35 mg/kg, read-out: Tmax): 120 min | half-life ([1]; female, mouse, Spleen, CD-1, IV 35 mg/kg): 27.6 min | Tmax ([1]; female, mouse, Spleen, CD-1, IV 35 mg/kg, read-out: Tmax): 4.8 min | compound remaining in mouse plasma ([2]; 4°C, at least 24 hr): more than 90% | compound remaining in mouse plasma ([2]; 37°C, 8 hr, 1 µM): more than 80% | compound remaining in mouse plasma ([2]; 37°C, 8 hr, 10 µM): more than 80% | compound remaining in mouse plasma ([2]; −80°C, up to 4 wks): more than 92% | decrease of tumor growth ([3]; 30 mg/kg i.p.): about 43% | decrease of tumor growth ([3]; 60 mg/kg i.p.): ~57% | body weight versus controls ([3]; 30 or 60 mg/kg i.p.): no significant differences in body weights | tumor growth inhibition (Panc-1 xenograft tumors; 30 mg/kg i.p.): approximately 46% | tumor growth inhibition (Panc-1 xenograft tumors; 60 mg/kg i.p.): 61% | body weight versus controls (Panc-1 xenograft tumors; 30 or 60 mg/kg i.p.): no significant differences in body weights
